The text below walks through data of patent US20140007502A1, “METHODS AND COMPOSITIONS FOR INCREASED PLANT YIELD” (priority 2011, published 2014).

Type in all cases: in vivo
Assay [1] relates to maize variety DeliTop (NK Seeds). Nature of the assay: Maize field trial yield, Niedersachsen, Germany (Example 6). Conditions: treatment at BBCH 14, 184 days. An excerpt:
(§1) Plots of suitable size in Valais, Switzerland were planted with maize hybrid COOLER™ (NK Seeds) at a conventional amount of seeds per hectare (in this example, 99,000) and at an increased density amount of seeds per hectare (in this example, 125,000).
(§2) Each density area was divided into four separate treatments—an untreated control, treatment with trinexapac ethyl (0.6 l/Ha of MODDUS™ 250EC which has 250 g trinexapac ethyl per liter) at BBCH 14, treatment with azoyxstrobin (1 l/Ha of a formulated product having 141.4 g azoxystrobin per liter in the form of QUILT® (Syngenta Crop Protection AG) which also contains 122.4 g propiconazole per liter) at BBCH 14, and treatment with trinexapac ethyl (0.6 l/Ha of 250 g/l product) and azoxystrobin (1 l/Ha of 141.4 g/l product) at BBCH 14.
(§3) Best practices were used consistently across the test plots with regard to field conditions such as fertilisation and irrigation and all other measures like weed and insect control. There was no fungal disease pressure. After a growing season of 188 days (29 Apr. 2011 to 3 Nov. 2011), each plot was harvested using a standard harvester. After shelling, the kernels were weighed at 14% moisture and the calculations extrapolated to a ton per hectare yield.
Plots were prepared and treated according to the procedure described in Example 2. The differences were that the location was Niedersachsen, Germany and the variety was DeliTop (NK Seeds). The growing season was 184 days (1 May 2011 to 1 Nov. 2011).

In assay [2] the test system is maize variety Terada (NK Seeds). Nature of the assay: Maize field trial yield, Oise, France (Example 4). The following applies: treatment at BBCH 14, 182 days.
Source text: as §1, §2, §3
Plots were prepared and treated according to the procedure described in Example 2. The differences were that the location was Oise, France and the variety was Terada (NK Seeds). The growing season was 182 days (14 Apr. 2011 to 13 Oct. 2011).

In assay [3] the test system is maize hybrid (Famoso, NK Seeds). Nature of the assay: Maize field plots, kernel yield at conventional and increased plant density (Example 1). The following applies: kernels at 14% moisture. An excerpt:
Plots measuring 25×40 meters were planted with a common maize hybrid (Famoso, NK Seeds). Eight plots were planted according to density strategies considered optimum prior to the disclosure of the present invention: rows were spaced 75 cm apart, allowing for 16 rows per plot which had 19 cm between plants. Another eight plots were planted with maize at increased density: spacing between rows was 45 cm, giving 24 rows per plot with 22 cm between plants. Thus the density was 7 plants/m^2 for conventional density and 10 plants/m^2 for increased density.
In the 8 plots of conventional density two were untreated controls. Three were treated with a foliar application at stage BBCH 14-15; one with trinexapac ethyl, one with azoxystrobin, and one with a mixture of trinexapac and azoyxstrobin. The remaining three were treated with a foliar application at stage BBCH 31-32; one with trinexapac ethyl, one with azoxystrobin, and one with a mixture of trinexapac and azoyxstrobin. The 8 plots planted at increased density were treated at the same stages and with the same agents as for the conventional density plots. Best practices were used consistently across the test plots with regard to field conditions such as fertilisation and irrigation and all other measures like weed and insect control.
At maturity, each plot was harvested using a standard harvester. After shelling, the kernels were weighed at 14% moisture and the calculations extrapolated to a ton per hectare yield.

Assay [4] concerns maize variety Famoso (NK Seeds). Nature of the assay: Maize field trial yield, Milano, Italy, 158 days (Example 5). The following applies: treatment at BBCH 14.
Source text: as §1, §2, §3
Plots were prepared and treated according to the procedure described in Example 2. The differences were that the location was Milano, Italy and the variety was Famoso (NK Seeds). The growing season was 158 days (15 Apr. 2011 to 20 Sep. 2011).

Assay [5] relates to maize hybrid COOLER (NK Seeds). Nature of the assay: Maize field trial yield, Valais, Switzerland (Example 2). The following applies: treatment at BBCH 14, 188 days.
Source text: as §1, §2, §3

Assay [6] relates to maize variety Famoso (NK Seeds). In words: Maize field trial yield, Milano, Italy, 163 days (Example 3). Conditions: treatment at BBCH 14.
Source text: as §1, §2, §3
Plots were prepared and treated according to the procedure described in Example 2. The differences were that the location was Milano, Italy and the variety was Famoso (NK Seeds). The growing season was 163 days (18 Apr. 2011 to 28 Sep. 2011).

Where [7] appears, read: plant density 7 plants/m^2, foliar application at BBCH 14-15.
The mark [8] stands for this setting: plant density 7 plants/m^2, foliar application at BBCH 31-32.
Where [9] appears, read: plant density 10 plants/m^2, foliar application at BBCH 14-15.
The mark [10] stands for this setting: plant density 10 plants/m^2, foliar application at BBCH 31-32.

Turning to `CCOC(=O)C1CC(=O)C(=C(O)C2CC2)C(=O)C1` (stereo not shown) [Trinexapac Ethyl, trinexapac ethyl], the Yield in assay [1] (72,000 seeds per hectare) is on record as 11.4 tons/ha; in assay [1] (111,000 seeds per hectare) it was 11.0 tons/ha; in assay [2] (70,000 seeds per hectare) it was 10.5 tons/ha; in assay [2] (100,000 seeds per hectare), 14.6 tons/ha; in assay [3] (setting [7]), 16.82 tons/ha; in assay [3] (setting [8]), 16.70 tons/ha. In addition, the Yield amounted to 19.85 tons/ha in assay [3] (setting [9]); 19.41 tons/ha in assay [3] (setting [10]); 13.7 tons/ha in assay [4] (74,000 seeds per hectare); 14.7 tons/ha in assay [4] (94,000 seeds per hectare); 14.0 tons/ha in assay [5] (99,000 seeds per hectare); 18.6 tons/ha in assay [5] (125,000 seeds per hectare). Also, the Yield in assay [6] (73,000 seeds per hectare) stood at 11.3 tons/ha; in assay [6] (94,000 seeds per hectare), 12.1 tons/ha.
Consider `CO/C=C(/C(=O)OC)c1ccccc1Oc1cc(Oc2ccccc2C#N)ncn1` [Azoxystrobin, azoxystrobin], for which the Yield is listed as 11.4 tons/ha in assay [1] (72,000 seeds per hectare); 11.1 tons/ha in assay [1] (111,000 seeds per hectare); 11.2 tons/ha in assay [2] (70,000 seeds per hectare); 13.6 tons/ha in assay [2] (100,000 seeds per hectare); 16.67 tons/ha in assay [3] (setting [7]); 17.28 tons/ha in assay [3] (setting [8]). For the same compound, the Yield in assay [3] (setting [9]) worked out at 20.11 tons/ha; in assay [3] (setting [10]), 19.58 tons/ha; in assay [4] (74,000 seeds per hectare), 14.0 tons/ha; in assay [4] (94,000 seeds per hectare) it was 15.0 tons/ha; in assay [5] (99,000 seeds per hectare) it was 14.1 tons/ha; in assay [5] (125,000 seeds per hectare), 17.8 tons/ha. The Yield in assay [6] (73,000 seeds per hectare) was 11.6 tons/ha; in assay [6] (94,000 seeds per hectare) it was 12.2 tons/ha.
